Measured values taken from patent US20250115591A1, “NOVEL SULFONAMIDE CARBOXAMIDE COMPOUNDS” (INFLAZOME LIMITED, priority 2017, published 2025).
Where a name gives a salt, the structure may show the parent alone. Read-outs that look alike come from different tables or passages of the source.

Legend:
NLRP3 [1] = target: T1, NLRP3 (Homo sapiens (Human), UniProt Q96P20); assay: Human whole blood IL1β release assay (LPS + nigericin); assay type: cell-based
Method: For systemic delivery, the ability to inhibit NLRP3 when the compounds are present within the bloodstream is of great importance. For this reason, the NLRP3 inhibitory activity of a number of compounds in human whole blood was investigated in accordance with the following protocol.
Human whole blood in Li-heparin tubes was obtained from healthy donors from a volunteer donor panel. • 1. Plate out 80 μl of whole blood containing 1 μg/ml of LPS in 96-well, clear bottom cell culture plate (Corning #3585) • 2. Add 10 μl compound (8 points half-log dilution with 10 μM top dose) or vehicle (DMSO 0.1% FAC) to the appropriate wells • 3. Incubate for 3 hrs at 37° C., 5% CO2 • 4. Add 10 μl nigericin (Sigma #N7143) ([…]) to all wells • 5. Incubate for 1 hr at 37° C., 5% CO2 • 6. At the end of the incubation period, spin plates at 30×g for 5 mins to pellet cells and remove 20 μl of supernatant and add to 96-well v-bottom plates for IL-1β analysis (note: these plates containing the supernatants can be stored at −80° C. to be analysed at a later date) • 7. IL-1β was measured according to the manufacturer protocol (Perkin Elmer-AlphaLisa IL-Kit A[220F-5000) • 8. IC50 data is fitted to a non-linear regression equation (log inhibitor vs response-variable slope 4-parameters)

NLRP3 [2] = target: T1, NLRP3; assay: THP-1 cells pyroptosis assay (LPS + nigericin, resazurin read-out); assay type: cell-based; conditions: 1 μg/ml LPS, 5 μM nigericin
Summary of the method: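 LPS-primed (1 μg/ml) human THP-1 cells in serum-free RPMI were exposed to compound (8-point half-log series, top dose as printed "10M") for 3 h at 37 °C, then to nigericin 5 μM for 1 h. Remaining viability was read by resazurin (100 μM, 1-2 h) fluorescence, and IC50 came from 4-parameter variable-slope regression.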

[3] = PK, intravenous administration; assay type: in vivo, male Sprague Dawley rats; conditions: male, Sprague Dawley, rat
Method: Pharmacokinetic parameters were determined in male Sprague Dawley rats (Charles River, UK, 250-300 g; or Vital River Laboratory Animal Technology Co Ltd, Beijing, China, 7-9 weeks old). Animals were individually housed during the study and maintained under a 12 h light/dark cycle. Animals had free access to food and water except that orally dosed animals were food deprived overnight prior to the study. For intravenous administration, compounds were formulated as a solution in water or DMSO:PBS [10:90] in 2 mL/kg dosing volume and administered via tail vein. For oral administration, compounds were formulated as a solution in water or DMSO:water [10:90] in 5 mL/kg dosing volume and administered orally. Serial blood samples (about 120-300 μL) were taken from each animal at each of 8 time-points post dose (0.083, 0.25, 0.5, 1, 2, 4, 8 and 24 h). Samples were held on ice for no longer than 30 minutes before centrifugation (10,000 rpm (8,385 g) for 3 minutes; or 5,696 rpm (3,000 g) for 15 minutes) for plasma generation. Plasma was frozen on dry ice prior to bioanalysis. PK parameters were generated from LC-MS/MS data using Dotmatics or Phoenix WinNonlin 6.3 software.

[4] = human whole blood, 1 μg/ml LPS, nigericin, IL-1β release, read-out: HWB IC50

T1 sequence (Q96P20 whole entry): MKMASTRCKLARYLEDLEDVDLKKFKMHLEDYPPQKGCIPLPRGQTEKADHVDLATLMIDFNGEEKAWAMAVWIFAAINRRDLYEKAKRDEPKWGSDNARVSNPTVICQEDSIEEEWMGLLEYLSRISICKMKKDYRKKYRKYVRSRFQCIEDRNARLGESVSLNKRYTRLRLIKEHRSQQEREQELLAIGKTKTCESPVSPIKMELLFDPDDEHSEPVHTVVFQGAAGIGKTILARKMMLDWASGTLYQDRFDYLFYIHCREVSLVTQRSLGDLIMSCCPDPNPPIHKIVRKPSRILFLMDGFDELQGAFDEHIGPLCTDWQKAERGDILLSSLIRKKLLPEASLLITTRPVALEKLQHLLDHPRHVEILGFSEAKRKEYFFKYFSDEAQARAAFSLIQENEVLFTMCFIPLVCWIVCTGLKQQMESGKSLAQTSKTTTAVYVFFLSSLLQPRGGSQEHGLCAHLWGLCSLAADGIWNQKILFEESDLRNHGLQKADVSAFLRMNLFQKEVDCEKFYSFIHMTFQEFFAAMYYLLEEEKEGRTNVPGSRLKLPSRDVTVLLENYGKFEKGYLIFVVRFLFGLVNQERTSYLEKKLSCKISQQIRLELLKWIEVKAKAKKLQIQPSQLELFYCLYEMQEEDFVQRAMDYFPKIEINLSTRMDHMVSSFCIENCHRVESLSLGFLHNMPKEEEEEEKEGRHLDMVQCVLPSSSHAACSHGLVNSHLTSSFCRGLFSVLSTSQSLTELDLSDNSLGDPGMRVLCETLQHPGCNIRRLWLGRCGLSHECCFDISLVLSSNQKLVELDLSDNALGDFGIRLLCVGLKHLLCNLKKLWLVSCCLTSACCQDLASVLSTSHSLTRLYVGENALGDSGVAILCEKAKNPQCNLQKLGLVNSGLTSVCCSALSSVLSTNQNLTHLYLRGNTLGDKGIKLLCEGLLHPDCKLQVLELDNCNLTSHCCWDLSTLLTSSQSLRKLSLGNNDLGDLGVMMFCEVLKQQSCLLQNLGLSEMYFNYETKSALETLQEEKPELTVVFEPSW

Q: For C#CCN1CC(S(=O)(=O)NC(=O)Nc2c3c(cc4c2CCC4)CCC3)C1 [Example 133, N-((1,2,3,5,6,7-Hexahydro-s-indacen-4-yl)carbamoyl)-1-(prop-2-yn-1-yl)azetidine-3-sulfonamide, potassium salt], which IC50 (NLRP3 [1]; [4]) is on record?
A: < 1000 nM

Q: What about the IC50 (NLRP3 [2]) of the same compound?
A: < 1000 nM

Q: For C#CCN1CCC(S(=O)(=O)NC(=O)Nc2c3c(cc4c2CCC4)CCC3)CC1 [Example 2, N-((1,2,3,5,6,7-Hexahydro-s-indacen-4-yl)carbamoyl)-1-(prop-2-yn-1-yl)piperidine-4-sulfonamide, potassium salt], which IC50 (NLRP3 [1]; [4]) is on record?
A: 1000 to 10000 nM

Q: What about the IC50 (NLRP3 [2]) of the same compound?
A: 1000 to 10000 nM

Q: With CCC(C)N1CC(S(=O)(=O)NC(=O)Nc2c3c(cc4c2CCC4)CCC3)C1 (centres unmarked) [Example 122, 1-(sec-Butyl)-N-((1,2,3,5,6,7-hexahydro-s-indacen-4-yl)carbamoyl)azetidine-3-sulfonamide, potassium salt] as the compound, how does the IC50 (NLRP3 [1]; [4]) read?
A: < 1000 nM

Q: And the IC50 (NLRP3 [2])?
A: < 1000 nM

Q: With CCN1CC(N2CCC(S(=O)(=O)NC(=O)Nc3c4c(cc5c3CCC5)CCC4)CC2)C1 [Example 24, 1-(1-Ethylazetidin-3-yl)-N-((1,2,3,5,6,7-hexahydro-s-indacen-4-yl)carbamoyl)piperidine-4-sulfonamide, potassium salt] as the compound, how does the IC50 (NLRP3 [1]; [4]) read?
A: < 1000 nM

Q: What about the IC50 (NLRP3 [2]) of the same compound?
A: < 1000 nM

Q: Which IC50 (NLRP3 [1]; [4]) does the source give for CC1(C)CCC1N1CC(S(=O)(=O)NC(=O)Nc2c3c(cc4c2CCC4)CCC3)C1 (centres unmarked) [Example 124, 1-(2,2-Dimethylcyclobutyl)-N-((1,2,3,5,6,7-hexahydro-s-indacen-4-yl)carbamoyl)azetidine-3-sulfonamide, potassium salt] here?
A: 1000 to 10000 nM

Q: What about the IC50 (NLRP3 [2]) of the same compound?
A: < 1000 nM

Q: Which IC50 (NLRP3 [1]; [4]) does the source give for [N-]=[N+]=NCCN1CC(S(=O)(=O)NC(=O)Nc2c3c(cc4c2CCC4)CCC3)C1 [Example 95, 1-(2-Azidoethyl)-N-((1,2,3,5,6,7-hexahydro-s-indacen-4-yl)carbamoyl)azetidine-3-sulfonamide, potassium salt] here?
A: 1000 to 10000 nM

Q: With O=C(Nc1c2c(cc3c1CCC3)CCC2)NS(=O)(=O)C1CN(CCO)C1 [Example 152, 1-(2-Hydroxyethyl)-N-((1,2,3,5,6,7-hexahydro-s-indacen-4-yl)carbamoyl)azetidine-3-sulfonamide, potassium salt] as the compound, how does the IC50 (NLRP3 [1]; [4]) read?
A: < 1000 nM

Q: And the IC50 (NLRP3 [2])?
A: < 1000 nM

Q: What does the source list for CCC(=O)N1CCCC(S(=O)(=O)NC(=O)Nc2c3c(cc4c2CCC4)CCC3)C1 (centres unmarked) [Example 32, N-((1,2,3,5,6,7-Hexahydro-s-indacen-4-yl)carbamoyl)-1-propionylpiperidine-3-sulfonamide, potassium salt]?
A: IC50 (NLRP3 [1]; [4]): 1000 to 10000 nM; IC50 (NLRP3 [2]): 1000 to 10000 nM

Q: What does the source list for O=C(Nc1c2c(cc3c1CCC3)CCC2)NS(=O)(=O)C1CN(CC2CCCO2)C1 (centres unmarked) [Example 145, N-((1,2,3,5,6,7-Hexahydro-s-indacen-4-yl)carbamoyl)-1-((tetrahydrofuran-2-yl)methyl)azetidine-3-sulfonamide, potassium salt]?
A: IC50 (NLRP3 [1]; [4]): 1000 to 10000 nM; IC50 (NLRP3 [2]): < 1000 nM

Q: With O=C(Nc1c2c(cc3c1CCC3)CCC2)NS(=O)(=O)C1CN(CC(F)(F)F)C1 [Example 96, N-((1,2,3,5,6,7-Hexahydro-s-indacen-4-yl)carbamoyl)-1-(2,2,2-trifluoroethyl)azetidine-3-sulfonamide, potassium salt] as the compound, how does the IC50 (NLRP3 [1]; [4]) read?
A: 1000 to 10000 nM

Q: What about the IC50 (NLRP3 [2]) of the same compound?
A: < 1000 nM

Q: Which IC50 (NLRP3 [1]; [4]) does the source give for O=C(Nc1c2c(cc3c1CCC3)CCC2)NS(=O)(=O)C1CN(CCCCO)C1 [Example 138, N-((1,2,3,5,6,7-Hexahydro-s-indacen-4-yl)carbamoyl)-1-(4-hydroxybutyl)azetidine-3-sulfonamide, potassium salt] here?
A: < 1000 nM

Q: What about the IC50 (NLRP3 [2]) of the same compound?
A: < 1000 nM

Q: For O=C(Nc1c2c(cc3c1CCC3)CCC2)NS(=O)(=O)C1CN(CC2COC2)C1 [Example 101, N-((1,2,3,5,6,7-Hexahydro-s-indacen-4-yl)carbamoyl)-1-(oxetan-3-ylmethyl)azetidine-3-sulfonamide, potassium salt], which IC50 (NLRP3 [1]; [4]) is on record?
A: < 1000 nM

Q: And the IC50 (NLRP3 [2])?
A: < 1000 nM

Q: For CC(C)n1cc(S(=O)(=O)NC(=O)Nc2c3c(cc4c2CCC4)CCC3)ccc1=O [Example 185, N-((1,2,3,5,6,7-Hexahydro-s-indacen-4-yl)carbamoyl)-1-isopropyl-6-oxo-1,6-dihydropyridine-3-sulfonamide, sodium salt], which IC50 (NLRP3 [1]; [4]) is on record?
A: 1000 to 10000 nM

Q: What about the IC50 (NLRP3 [2]) of the same compound?
A: < 1000 nM

Q: Which results are given for O=C(Nc1c2c(cc3c1CCC3)CCC2)NS(=O)(=O)C1CN(Cc2ccncc2)C1 [Example 103, N-((1,2,3,5,6,7-Hexahydro-s-indacen-4-yl)carbamoyl)-1-(pyridin-4-ylmethyl)azetidine-3-sulfonamide, potassium salt]?
A: IC50 (NLRP3 [1]; [4]): 1000 to 10000 nM; IC50 (NLRP3 [2]): < 1000 nM

Q: What does the source list for O=C(Nc1c2c(cc3c1CCC3)CCC2)NS(=O)(=O)C1CN(C2CCOC2)C1 (centres unmarked) [Example 121, N-((1,2,3,5,6,7-Hexahydro-s-indacen-4-yl)carbamoyl)-1-(tetrahydrofuran-3-yl)azetidine-3-sulfonamide, potassium salt]?
A: IC50 (NLRP3 [1]; [4]): < 1000 nM; IC50 (NLRP3 [2]): < 1000 nM

Q: Which results are given for CN1CC(S(=O)(=O)NC(=O)Nc2c3c(cc4c2CCC4)CCC3)C1 [Example 49, N-((1,2,3,5,6,7-Hexahydro-s-indacen-4-yl)carbamoyl)-1-methylazetidine-3-sulfonamide, potassium salt]?
A: IC50 (NLRP3 [1]; [4]): < 1000 nM; IC50 (NLRP3 [2]): < 1000 nM

Q: Which results are given for O=C(Nc1c2c(cc3c1CCC3)CCC2)NS(=O)(=O)C1CCNCC1 [Example 4, N-((1,2,3,5,6,7-Hexahydro-s-indacen-4-yl)carbamoyl)-piperidine-4-sulfonamide, potassium salt]?
A: IC50 (NLRP3 [1]; [4]): 1000 to 10000 nM; IC50 (NLRP3 [2]): 1000 to 10000 nM

Q: Which IC50 (NLRP3 [1]; [4]) does the source give for O=C(Nc1c2c(cc3c1CCC3)CCC2)NS(=O)(=O)C1CCN(C(=O)C(F)(F)F)CC1 [Example 8, N-((1,2,3,5,6,7-Hexahydro-s-indacen-4-yl)carbamoyl)-1-(2,2,2-trifluoroacetyl)piperidine-4-sulfonamide, potassium salt] here?
A: < 1000 nM

Q: What about the IC50 (NLRP3 [2]) of the same compound?
A: 1000 to 10000 nM

Q: With CCN1CCC(S(=O)(=O)NC(=O)Nc2c3c(cc4c2CCC4)CC=C3)CC1 [Example 189, 1-Ethyl-N-((1,2,3,7-tetrahydro-s-indacen-4-yl)carbamoyl) piperidine-4-sulfonamide, potassium salt] as the compound, how does the IC50 (NLRP3 [1]; [4]) read?
A: 1000 to 10000 nM

Q: For O=C(Nc1c2c(cc3c1CCC3)CCC2)NS(=O)(=O)C1CN(Cc2cncnc2)C1 [Example 125, N-((1,2,3,5,6,7-Hexahydro-s-indacen-4-yl)carbamoyl)-1-(pyrimidin-S-ylmethyl)azetidine-3-sulfonamide, potassium salt], which IC50 (NLRP3 [1]; [4]) is on record?
A: 1000 to 10000 nM

Q: Which AUC ([3]; plasma, intravenous, dose 1 mg/kg, read-out: AUC) does the source give for O=C(Nc1c2c(cc3c1CCC3)CCC2)NS(=O)(=O)C1CN(C2CCC2)C1 [Example 18, 1-Cyclobutyl-N-((1,2,3,5,6,7-hexahydro-s-indacen-4-yl)carbamoyl)azetidine-3-sulfonamide, potassium salt] here?
A: 1530 ng·h/mL

Q: What about the clearance ([3]; plasma, intravenous, dose 1 mg/kg, read-out: Cl) of the same compound?
A: 10.9 mL/min/kg

Q: And the half-life ([3]; plasma, intravenous, dose 1 mg/kg, read-out: T1/2 (converted))?
A: 0.9 h

Q: And the Vd ([3]; plasma, intravenous, dose 1 mg/kg, read-out: Vdss)?
A: 0.42 L/kg

Q: For O=C(Nc1c2c(cc3c1CCC3)CCC2)NS(=O)(=O)C1CN(CCCl)C1 [Example 92, 1-(2-Chloroethyl)-N-((1,2,3,5,6,7-hexahydro-s-indacen-4-yl)carbamoyl)azetidine-3-sulfonamide, potassium salt], which IC50 (NLRP3 [1]) is on record?
A: 1000 to 10000 nM

Q: With O=C(Nc1c2c(cc3c1CCC3)CCC2)NS(=O)(=O)C1CN(Cc2ccccc2)C1 [Example 72, 1-Benzyl-N-((1,2,3,5,6,7-hexahydro-s-indacen-4-yl)carbamoyl) azetidine-3-sulfonamide, potassium salt] as the compound, how does the IC50 (NLRP3 [1]; [4]) read?
A: 1000 to 10000 nM

Q: Which results are given for CC(C)N1[C@@H]2CC[C@H]1C[C@@H](S(=O)(=O)NC(=O)Nc1c3c(cc4c1CCC4)CCC3)C2 [Example 45, (1R*,3R*,5S*)—N-((1,2,3,5,6,7-Hexahydro-s-indacen-4-yl)carbamoyl)-8-isopropyl-8-azabicyclo[3.2.i]octane-3-sulfonamide, potassium salt]?
A: AUC ([3]; in vivo, iv, 0.66 mg/kg): 703 ng·h/mL; Vd ([3]; in vivo, iv, 0.66 mg/kg): 2.06 L/kg; clearance ([3]; in vivo, iv, 0.66 mg/kg): 15.6 mL/min/kg; half-life ([3]; in vivo, iv, 0.66 mg/kg): 3.3 h
